From patent US7199162B1, “Use of treosulfan for patient conditioning before bone marrow or blood stem cell transplantation” (Medac Gesellschaft fur Klinische Spezialpraparate mbH, priority 1999, dated 2007)

Legend:
[1] = tested on: donor-type chimerism in the recipient; assay: H-2-compatible allogenic bone-marrow transplantation trial (C.B10→B6); type: in vivo, mice; conditions: substance alone, treosulfan in fractionated doses
Method: Treosulfan administered in fractionated doses was also evaluated in an H-2-compatible allogenic bone-marrow transplantation trial (C.B10→B6). In this trial, an immunological reaction resulting in rejection of the transplant must be prevented by conditioning with e.g. treosulfan, before growth of the transplant is possible.

water solubility = type: physicochemical
[2] = tested on: haematopoietic stem cells in the host bone marrow; assay: cobblestone area forming cell assay (CAFC) on host bone marrow 24 hours after administration, murine bone-marrow transplantation model; type: in vivo; conditions: recipient mice (BG-Gpi-1b), 3×2500 mg/kg daily fractionation, CAFC 24 hours after administration
Method: The recipient mice (BG-Gpi-1^b) were treated with 3×2500 mg/kg or 7500 mg/kg (corresponding to 22.5 g/m^2) treosulfan or 50 mg/kg busulfan. 24 hours after administration the elimination of the different haematopoietic stem cells in the host bone marrow was ascertained using the in vitro cobblestone area forming cell assays (CAFC; cf. Ploemacher et al., Blood 78 (1991) 2527–2533).

[3] = non-haematological toxicity profile; conditions: general statement, in contrast to busulfan
[4] = pharmacokinetic properties after intravenous administration

| SMILES | induction of donor-type chimerism / conditioning before allogenic bone-marrow transplantation [1] | water-solubility (water solubility) | elimination of both the primitive and the "committed" progenitor cells [2] | non-haematological toxicity (liver, kidney, CNS, lung) [3] | pharmacokinetic properties [4] |
| --- | --- | --- | --- | --- | --- |
| CS(=O)(=O)OCCCCOS(C)(=O)=O [busulfan] | unable to bring about effective conditioning | low solubility | – | – | – |
| CS(=O)(=O)OC[C@H](O)[C@@H](O)COS(C)(=O)=O [treosulfan[…]] | almost complete and stable donor-type chimerism | consistent high water-solubility | 3 to 5 powers of ten | no significant liver, kidney, CNS or lung toxicity | reliable and linear pharmacokinetic properties |
